The values that follow come from article PMC9592870 (Molecular Diversity, 2022).

One experiment deals with Vero cells. The settings on record: CC50 Vero cells / MIC Mtb H37Rv.
In another experiment the test system is M. fortuitum ATCC 6841. As to the kind of experiment: Antimycobacterial broth microdilution MIC, non-tuberculous mycobacteria. Type of experiment: cell-based. The settings on record: 48 h.
In a further experiment the test system is M. chelonae ATCC 35752. Described as above. The settings on record: 48 h. The class given is cell-based.

`COC(=O)c1cc(-c2cccc(NC(=O)Nc3ccc(C(F)(F)F)cc3)c2)on1` [4n, Methyl 5-(3-(3-(4-(trifluoromethyl)phenyl)ureido)phenyl)isoxazole-3-carboxylate]: in the experiment on Vero cells, the “SI selectivity index (CC50/MIC)” value is reported as > 50. In the case of `COC(=O)c1cc(-c2cccc(NC(=O)Nc3ccccc3OC)c2)on1` [4d, Methyl 5-(3-(3-(2-methoxyphenyl)ureido)phenyl)isoxazole-3-carboxylate], the “SI selectivity index (CC50/MIC)” value in the experiment with Vero cells is given as < 20. Same read-out and setting: the result for `COC(=O)c1cc(-c2ccc(NC(=O)Nc3ccc(Cl)c(Cl)c3)cc2)on1` [4tb, Methyl 5-(4-(3-(3,4-dichlorophenyl)ureido)phenyl)isoxazole-3-carboxylate] reads > 80. The same measure, in the same setting: the result for `COC(=O)c1cc(-c2cccc(NC(=S)Nc3ccc(Cl)cc3)c2)on1` [5f, Methyl 5-(3-(3-(4-chlorophenyl)thioureido)phenyl)isoxazole-3-carboxylate] reads > 50. For the molecule `COC(=O)c1cc(-c2cccc(NC(=S)Nc3ccc(F)cc3F)c2)on1` [5k, Methyl 5-(3-(3-(2,4-difluorophenyl)thioureido)phenyl)isoxazole-3-carboxylate], the “MIC M. fortuitum ATCC 6841” value with M. fortuitum ATCC 6841 is reported as “weaker inhibition”. For the same molecule, the “MIC M. chelonae ATCC 35752” value with M. chelonae ATCC 35752 is “weaker inhibition”.

For `COC(=O)c1cc(-c2cccc(NC(=O)Nc3ccc(F)cc3)c2)on1` [4j, Methyl 5-(3-(3-(4-fluorophenyl)ureido)phenyl)isoxazole-3-carboxylate], in the experiment on Vero cells, the “SI selectivity index (CC50/MIC)” value was > 200. For the molecule `COC(=O)c1cc(-c2cccc(NC(=S)Nc3ccc(C#N)cc3)c2)on1` [5i, Methyl 5-(3-(3-(4-cyanophenyl)thioureido)phenyl)isoxazole-3-carboxylate], the “MIC M. fortuitum ATCC 6841” value in the experiment on M. fortuitum ATCC 6841 is given as “weaker inhibition”. In addition, the “MIC M. chelonae ATCC 35752” value in the experiment on M. chelonae ATCC 35752 was “weaker inhibition”.

For the molecule `COC(=O)c1cc(-c2cccc(NC(=S)Nc3ccc(F)c(Cl)c3)c2)on1` [5m, Methyl 5-(3-(3-(3-chloro-4-fluorophenyl)thioureido)phenyl)isoxazole-3-carboxylate], the “MIC M. fortuitum ATCC 6841” value against M. fortuitum ATCC 6841 is listed as “weaker inhibition”. Besides, in the experiment with M. chelonae ATCC 35752, the “MIC M. chelonae ATCC 35752” value is “weaker inhibition”. As for `COC(=O)c1cc(-c2cccc(NC(=O)Nc3ccc(Cl)cc3Cl)c2)on1` [4r, Methyl 5-(3-(3-(2,4-dichlorophenyl)ureido)phenyl)isoxazole-3-carboxylate], in the experiment with Vero cells, the “SI selectivity index (CC50/MIC)” value was > 50. The same measure, in the same setting: the result for `COC(=O)c1cc(-c2cccc(NC(=O)Nc3cc(OC)ccc3OC)c2)on1` [4w, Methyl 5-(3-(3-(2,5-dimethoxyphenyl)ureido)phenyl)isoxazole-3-carboxylate] reads < 20.
